In BindingDB's records for doi:10.1021/jm00032a002 (Merck Sharp and Dohme Research Laboratories, 1994):

Target: Gastrin/cholecystokinin type B receptor (Cavia porcellus)
Test: Binding activity against Cholecystokinin type B receptor from guinea pig cortex using [125]BH CCK-8s as radioligand.

IC50: 5.7 nM
SMILES: Cc1cccc(NC(=O)NC2N=C(N3CCCCC3)c3ccccc3N(C)C2=O)c1 (stereo unspecified) [1-(1-Methyl-2-oxo-5-piperidin-1-yl-2,3-dihydro-1H-benzo[e][1,4]diazepin-3-yl)-3-m-tolyl-urea]
